Experimental data from PubChem BioAssay (NCI).
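Method: 48-hour compound exposure of cells in 96-well plates, five concentrations, linear interpolation of endpoints. TGI denotes the concentration required for complete inhibition of growth.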

What was measured:
Assay in all cases: inhibition of tumour cell growth, NCI panel, 48 h
MOLT-4 leukemia = tested on: MOLT-4 leukemia
786-0 renal = tested on: 786-0 renal
HCT-15 colon = tested on: HCT-15 colon
CCRF-CEM leukemia = tested on: CCRF-CEM leukemia
SW-620 colon = tested on: SW-620 colon
COLO 205 colon = tested on: COLO 205 colon
SNB-75 CNS = tested on: SNB-75 CNS
CAKI-1 renal = tested on: CAKI-1 renal
M19-MEL melanoma = tested on: M19-MEL melanoma
SK-OV-3 ovarian = tested on: SK-OV-3 ovarian
HCC-2998 colon = tested on: HCC-2998 colon
OVCAR-4 ovarian = tested on: OVCAR-4 ovarian
UO-31 renal = tested on: UO-31 renal
UACC-62 melanoma = tested on: UACC-62 melanoma
IGROV1 ovarian = tested on: IGROV1 ovarian
DMS 273 small cell lung = tested on: DMS 273 small cell lung
ACHN renal = tested on: ACHN renal
SF-539 CNS = tested on: SF-539 CNS
SK-MEL-5 melanoma = tested on: SK-MEL-5 melanoma
TK-10 renal = tested on: TK-10 renal
UACC-257 melanoma = tested on: UACC-257 melanoma
HT29 colon = tested on: HT29 colon
KM20L2 colon = tested on: KM20L2 colon
SN12C renal = tested on: SN12C renal
SF-268 CNS = tested on: SF-268 CNS
OVCAR-3 ovarian = tested on: OVCAR-3 ovarian
MALME-3M melanoma = tested on: MALME-3M melanoma
KM12 colon = tested on: KM12 colon
EKVX NSCLC = tested on: EKVX NSCLC
HCT-116 colon = tested on: HCT-116 colon
NCI-H460 lung = tested on: NCI-H460 lung
DMS 114 small cell lung = tested on: DMS 114 small cell lung
SF-295 CNS = tested on: SF-295 CNS
NCI-H522 lung = tested on: NCI-H522 lung
SR leukemia = tested on: SR leukemia
LOX IMVI melanoma = tested on: LOX IMVI melanoma
SNB-19 CNS = tested on: SNB-19 CNS
HL-60(TB) leukemia = tested on: HL-60(TB) leukemia
M14 melanoma = tested on: M14 melanoma
OVCAR-8 ovarian = tested on: OVCAR-8 ovarian
LXFL 529 NSCLC = tested on: LXFL 529 NSCLC
HOP-18 NSCLC = tested on: HOP-18 NSCLC
RXF-631 renal = tested on: RXF-631 renal
HOP-92 NSCLC = tested on: HOP-92 NSCLC
A549 NSCLC = tested on: A549 NSCLC
SK-MEL-28 melanoma = tested on: SK-MEL-28 melanoma
NCI-H23 lung = tested on: NCI-H23 lung
HOP-62 NSCLC = tested on: HOP-62 NSCLC
SK-MEL-2 melanoma = tested on: SK-MEL-2 melanoma
U251 CNS = tested on: U251 CNS
A498 renal = tested on: A498 renal
SNB-78 CNS = tested on: SNB-78 CNS
K-562 leukemia = tested on: K-562 leukemia
NCI-H226 lung = tested on: NCI-H226 lung
RPMI-8226 leukemia = tested on: RPMI-8226 leukemia
RXF 393 renal = tested on: RXF 393 renal
OVCAR-5 ovarian = tested on: OVCAR-5 ovarian
DLD-1 colon = tested on: DLD-1 colon

Measured: TGI

O=C(Nc1nc(=S)[nH][nH]1)C(=O)C1C(=O)Nc2ccccc2S1=O (stereo not drawn)
not listed: SK-MEL-2 melanoma | U251 CNS | A498 renal | SNB-78 CNS | K-562 leukemia | NCI-H226 lung | RPMI-8226 leukemia | RXF 393 renal | OVCAR-5 ovarian | DLD-1 colon
> 100 µM: all other assays above

CC(C)[C@@H](C)CC[C@@H](C)C1CC=C2[C@@H]3CCC4C[C@@H](O[Si](C)(C)C(C)(C)C)CC[C@]4(C)C3CC[C@@]21C (stereo partly drawn)
not listed: HT29 colon | SF-295 CNS | LOX IMVI melanoma | HOP-92 NSCLC | NCI-H23 lung | OVCAR-5 ovarian | DLD-1 colon
> 100 µM: all other assays above

Nc1ncnc2c1ncn2C1OC(CSC(F)F)C(O)C1O (stereo not drawn)
not listed: M19-MEL melanoma | SR leukemia | SNB-19 CNS | RXF 393 renal
> 100 µM: all other assays above
